Data as given in the NIST ThermoML archive (doi:10.1021/je500512f).
Numbers after ± are expanded uncertainties.

Experiment: molar heat capacity at constant pressure
Conditions: Liquid, Twin Calvet

CC(F)F [1,1-difluoroethane]
molar heat capacity at constant pressure [J/K/mol]
Conditions	1490 kPa	2070 kPa	2540 kPa	2950 kPa	3440 kPa	4010 kPa	4600 kPa	5030 kPa
305.15 K	121 ± 6.1	121.14 ± 6.1	120.81 ± 6.1	120.28 ± 6.1	119.29 ± 6	119.55 ± 6	118.96 ± 6	118.49 ± 6
310.15 K	121.8 ± 6.1	121.53 ± 6.1	121.07 ± 6.1	120.81 ± 6.1	120.08 ± 6.1	119.75 ± 6	119.35 ± 6	119.09 ± 6
315.15 K	123.84 ± 6.3	123.25 ± 6.2	122.79 ± 6.2	122.46 ± 6.2	121.8 ± 6.1	121.2 ± 6.1	120.61 ± 6.1	120.41 ± 6.1
320.15 K	126.16 ± 6.3	125.23 ± 6.3	124.77 ± 6.3	124.24 ± 6.3	123.71 ± 6.3	122.99 ± 6.2	122.06 ± 6.1	121.8 ± 6.1
325.15 K	129 ± 6.5	127.61 ± 6.4	127.01 ± 6.4	126.42 ± 6.4	125.89 ± 6.3	124.97 ± 6.3	123.84 ± 6.3	123.45 ± 6.2
330.15 K	–	130.65 ± 6.6	129.79 ± 6.5	129.13 ± 6.5	128.47 ± 6.5	127.41 ± 6.4	126.09 ± 6.3	125.63 ± 6.3
335.15 K	–	134.21 ± 6.8	133.22 ± 6.7	132.36 ± 6.7	131.44 ± 6.6	130.18 ± 6.5	128.8 ± 6.5	128.27 ± 6.5
340.15 K	–	–	137.25 ± 6.9	136.06 ± 6.9	134.94 ± 6.8	133.49 ± 6.7	131.9 ± 6.7	131.31 ± 6.6
345.15 K	–	–	141.88 ± 7.1	140.36 ± 7.1	139.04 ± 7	137.32 ± 6.9	135.34 ± 6.8	134.61 ± 6.8
350.15 K	–	–	–	146.1 ± 7.4	144.05 ± 7.3	141.88 ± 7.1	139.43 ± 7.1	138.51 ± 7
355.15 K	–	–	–	–	150.66 ± 7.6	147.56 ± 7.5	144.45 ± 7.3	143.2 ± 7.2
360.15 K	–	–	–	–	–	155.02 ± 7.8	151.06 ± 7.6	149.14 ± 7.5
